{"source": "patent US10156566B2", "about": "“Detoxification of microbial virulence factors in oral cavity” (priority 2015, dated 2018)", "system": "Lipopolysaccharide", "data": [{"compound": "CCCCCCCCCC(=O)OC[C@H](COP(=O)([O-])OCC[N+](C)(C)C)OC(=O)CCCCCCCCC", "note": "[1,2-Didecanoyl PC]", "values": [{"measurement": "inhibition", "value": 67.9, "unit": "%"}]}, {"compound": "CCCCCCCCCC(=O)OC[C@H](CO)OC(=O)CCCCCCCCC", "note": "[1,2-Didecanoyl-sn-glycerol]", "values": [{"measurement": "inhibition", "value": 47.4, "unit": "%"}]}, {"compound": "CCCCCCCC(=O)OC[C@H](CO)OC(=O)CCCCCCC", "note": "[1,2-Dioctanoyl-sn-glycerol]", "values": [{"measurement": "inhibition", "value": 51.2, "unit": "%"}]}, {"compound": "CCCCC/C=C\\C/C=C\\C/C=C\\C/C=C\\CCCC(=O)OCC(O)CO", "note": "(stereo not drawn) [1-Arachidonoyl Glycerol]", "values": [{"measurement": "inhibition", "value": 41.8, "unit": "%"}]}, {"compound": "CCCCCCCC/C=C\\CCCCCCCC(=O)OC[C@H](CO)OC(C)=O", "note": "[1-Oleoyl-2-acetyl-sn-glycerol]", "values": [{"measurement": "inhibition", "value": 36.2, "unit": "%"}]}, {"compound": "CCCCC/C=C\\C/C=C\\C/C=C\\C/C=C\\CCCC(=O)O[C@H](COC(=O)CCCCCCCCCCCCCCCCC)COP(=O)([O-])OCC[N+](C)(C)C", "note": "[1-Stearoyl-2-Arachidonoyl PC]", "values": [{"measurement": "inhibition", "value": 55, "unit": "%"}]}, {"compound": "CCCCC/C=C\\C/C=C\\C/C=C\\C/C=C\\CCCCOC(CO)CO", "note": "[2-Arachidonyl Glycerol ether]", "values": [{"measurement": "inhibition", "value": 35, "unit": "%"}]}, {"compound": "CC(C)CCC[C@@H](C)[C@H]1CC[C@H]2[C@@H]3CC(=O)[C@@]4(O)C[C@@H](O)CC[C@]4(C)[C@H]3CC[C@]12C", "note": "[5α-hydroxy-6-keto Cholesterol]", "values": [{"measurement": "inhibition", "value": 81.7, "unit": "%"}]}, {"compound": "CCCCCCCC/C=C\\CCCCCCCC(=O)OCCO", "note": "[9-octadecenoic acid (z)-,2-hydroxyethyl ester]", "values": [{"measurement": "inhibition", "value": 46, "unit": "%"}]}, {"compound": "CCCCCCCCCCCC(=O)NCCCN(C)C", "note": "[(Laurylamidopropyl)dimethyl amine]", "values": [{"measurement": "inhibition", "value": 99.1, "unit": "%"}]}, {"compound": "O=C1O/C(=C/Br)CC[C@@H]1c1cccc2ccccc12", "note": "[(R)-Bromoenol lactone]", "values": [{"measurement": "inhibition", "value": 97.3, "unit": "%"}]}, {"compound": "O=C1O/C(=C/Br)CC[C@H]1c1cccc2ccccc12", "note": "[(S)-Bromoenol lactone]", "values": [{"measurement": "inhibition", "value": 95.2, "unit": "%"}]}, {"compound": "CC/C=C\\C/C=C\\C/C=C\\CCCCCCCC(=O)OCC", "note": "[(z,z,z)-9,12,15-octadecatrienoic acid ethyl ester]", "values": [{"measurement": "inhibition", "value": 34.9, "unit": "%"}]}, {"compound": "CCCCC/C=C\\C/C=C\\C/C=C\\C/C=C\\CCCC(=O)Nc1ccc(O)cc1", "note": "[AM404]", "values": [{"measurement": "inhibition", "value": 47.6, "unit": "%"}]}, {"compound": "O=S(=O)(O)c1ccc(O)cc1", "note": "[Aluminum phenol sulfonate]", "values": [{"measurement": "inhibition", "value": 27.4, "unit": "%"}]}, {"compound": "CCCCC/C=C\\C/C=C\\C/C=C\\C/C=C\\CCCC(=O)NCCO", "note": "[Anandamide (N-arachidonylethanol amide)]", "values": [{"measurement": "inhibition", "value": 31.3, "unit": "%"}]}, {"compound": "O=C1O/C(=C/Br)CCC1c1cccc2ccccc12", "note": "(stereo not drawn) [Bromoenol lactone]", "values": [{"measurement": "inhibition", "value": 99.7, "unit": "%"}]}, {"compound": "CCCCCCCCCCCCC/C=C/[C@@H](O)[C@H](CO)NC(=O)CCCCC", "note": "[C-6 Ceramide]", "values": [{"measurement": "inhibition", "value": 48, "unit": "%"}]}, {"compound": "CCCCCCCCCCCCC/C=C/[C@@H](O)[C@H](COP(=O)(O)O)NC(=O)CCCCCCC", "note": "[C-8 Ceramide-1-phosphate]", "values": [{"measurement": "inhibition", "value": 42.7, "unit": "%"}]}, {"compound": "CCCCCCCCCCCCC/C=C/[C@@H](O)[C@H](CO)NC(=O)CCCCCCC", "note": "[C-8 Ceramide]", "values": [{"measurement": "inhibition", "value": 65.5, "unit": "%"}]}, {"compound": "CCCCCCCCCCCCC/C=C/[C@@H](O)[C@H](CO)NCCCCCCCC", "note": "[C-8 Ceramine]", "values": [{"measurement": "inhibition", "value": 96.7, "unit": "%"}]}, {"compound": "CCCCCCCCCCCCCCCC[N+](C)(C)C", "note": "[Cetrimonium chloride]", "values": [{"measurement": "inhibition", "value": 99.5, "unit": "%"}]}, {"compound": "CCCCCCCCCCCCCCCC[N+](C)(C)C", "note": "[Cetyltrimethylammonium bromide]", "values": [{"measurement": "inhibition", "value": 99.5, "unit": "%"}]}, {"compound": "COc1cc(/C=C/C(=O)CC(=O)/C=C/c2ccc(O)c(OC)c2)ccc1O", "note": "[Curcumin]", "values": [{"measurement": "inhibition", "value": 55.9, "unit": "%"}]}, {"compound": "CCCCCCCCCCCCC/C=C/[C@@H](O)[C@@H](N)CO", "note": "[D-erythro-Sphingosine C-18]", "values": [{"measurement": "inhibition", "value": 63.8, "unit": "%"}]}, {"compound": "CCCCCCCCCCCC[P+](c1ccccc1)(c1ccccc1)c1ccccc1", "note": "[DODECYLTRIPHENYLP[…], 98%, DODECYLTRIPHENYLP[…]]", "values": [{"measurement": "inhibition", "value": 91.1, "unit": "%"}]}, {"compound": "CCCCCCCCCC[N+](C)(C)CCCCCCCCCC", "note": "[Didecyldimethylammounium chloride]", "values": [{"measurement": "inhibition", "value": 97.5, "unit": "%"}]}, {"compound": "CCCCCCCCCCCC(=O)NCCCN(C)C", "note": "[Dimethylaminopropyllaurylamide]", "values": [{"measurement": "inhibition", "value": 99.4, "unit": "%"}]}, {"compound": "CCCCCCCCCCCCCCCC[N+](C)(C)Cc1ccccc1", "note": "[Dimethylbenzylcetylammonium chloride]", "values": [{"measurement": "inhibition", "value": 95.5, "unit": "%"}]}, {"compound": "CCCCCCCCCCCC[N+](C)(C)Cc1ccccc1", "note": "[Dimethyldodecylbenzylammonium bromide]", "values": [{"measurement": "inhibition", "value": 98.1, "unit": "%"}]}]}
